Earlier results as cited in article PMC7913621 (Molecules, 2021).

Key:
AChE = settings: read-out: AChE inhibition IC50; cited from earlier work
PDE5A1 = settings: read-out: PDE5A1 inhibition IC50; cited from earlier work
PDE = settings: read-out: PDE inhibition activity IC50; cited from earlier work
[1] = system: colon cancer cell line HT29; settings: read-out: cytotoxic effect IC50; cited from earlier work

O=C1C2Cc3c([nH]c4ccccc34)C(c3ccc4c(c3)OCO4)N2C(=O)CN1CCC1CCN(Cc2ccccc2)CC1 (stereo not shown) [Compound 5]
IC50 (AChE): 32 nM | IC50 (PDE5A1): 1530 nM

CCN1CC(=O)N2C(Cc3c([nH]c4ccccc34)C2c2ccccc2Br)C1=O (stereo not shown) [Compound 3]
IC50 (PDE): 60 nM | IC50 [1]: 25500 nM
